# ChEMBL document CHEMBL1143540, “Synthesis and in vivo antihyperglycemic activity of 5-(1H-pyrazol-3-yl)methyl-1H-tetrazoles” (2005)
# Test system: Rattus norvegicus
# Assay: Percent fall in blood glucose level in male Sprague-Dawley rats when at 100 mg/kg dose was calculated by AUC method
# Assay type: functional
row,Compound,Activity
1,Clc1ccc(-c2cc(Cc3nnn[nH]3)[nH]n2)cc1,10.8%
2,CN(CCOc1ccc(-c2cc(Cc3nnn[nH]3)[nH]n2)cc1)Cc1ccccc1,18%
3,CSCCOc1ccc(-c2cc(Cc3nnn[nH]3)[nH]n2)cc1,24.6%
4,Brc1ccc(-c2cc(Cc3nnn[nH]3)[nH]n2)cc1,18%
5,c1ccc2oc(-c3cc(Cc4nnn[nH]4)n[nH]3)cc2c1,6.2%
6,c1csc(-c2cc(Cc3nnn[nH]3)n[nH]2)c1,21.4%
7,CSc1ccc(-c2cc(Cc3nnn[nH]3)[nH]n2)cc1,6.06%
8,c1ccc(-c2cc(Cc3nnn[nH]3)n[nH]2)cc1,10.6%
9,CN(C)C(=N)NC(=N)N [METFORMIN],12.9%
